Data reported in US5593970A, “Heterocyclic anthracycline analogs” (priority 1994, dated 1997).
Where two headings read alike, the source gives them in different places.

Legend:
[1] = tested on: Leukemia; assay: NCI assay, average per cancer type; conditions: for CC50: 48 h, read-out: Average LOG10 LC50; for GI50: read-out: Average LOG10 GI50
[2] = tested on: Ovarian; assay: NCI assay, average per cancer type; conditions: for GI50 / CC50: Homo sapiens; for GI50: read-out: Average LOG10 GI50; for CC50: 48 h, read-out: Average LOG10 LC50
[3] = tested on: solid tumors; assay: NCI assay, mean potency in solid tumors; conditions: for GI50 / CC50: Homo sapiens; for GI50: read-out: Average LOG10 GI50, Mean Potency in solid tumors; for CC50: 48 h, read-out: Average LOG10 LC50, Mean Potency in solid tumors
[4] = tested on: HT29; assay: Soft agar colony formation disk diffusion assay; type: cell-based, human
Description: A more elaborate version of this fundamental assay, the soft agar colony formation disk diffusion assay was used. […] The effect of the test drug against tumoral cells could be measured by its inhibitory capacity against colony formation after the delivery of the compound, in different concentrations on an filter disk(4). A modified technique of this assay was used in order to investigate the antiproliferative activity of candidate compounds. Tumoral cells from solid tumors and ascitic lines were plated separately in a two layer agar matrix. Cell lines to be tested were suspended in an upper layer of 0.4% Noble agar (Difco#00142-01) in RPMI-1066 (Gibco#3201875) at a yield varying between 10^4 to 2×10^5 cells per 60 mm Petri dish. Plating efficiency was determined for each line in order to achieve an optimal number of colonies per dish. […] The bottom layer consisted of 0.8% Noble agar, 0.8% Tryptic Soy Broth (difco#0037001)in CMRL-1066/Fischer's. The bottom layers were used within 2 and 9 days of preparation. Plated dishes (bottom layer of agar, upper layer of cells and administered drug were incubated in humidified atmosphere at 37° C., 5% CO2 for 10-20 days depending upon the time necessary to observe adequate colonies (defined as a cell aggregate of more than 50 cells) both control and drug inhibited. Drugs were administered on a paper filter disk (Whatman No. 1) of 6.5 mm diameter placed on the upper layer at 1/3 distance from the edge of the dish. The anti-clonogenic activity of the compounds was measured as the zone of inhibition from the disk edge to the most proximal colonies. This zone of inhibition was checked on an inverted microscope (40×) and was measured with a micrometer mounted in the eyepiece. The ocular micrometer was calibrated with a stage micrometer set for a particular combination of ocular and objective lenses. […] We made a modification of the initial technique by not plating a solid tumor and a leukemia simultaneously in the same Petri dish. […] HUMAN TUMORS. […] LS180 (13) and BE1(14) were obtained from the Oncology Dept. of the Montreal General Hospital. […] Cell lines were routinely passaged twice a week by trypsinization and maintained in 25, or 75-sq. cm Falcon Plastic flasks at 37° C., 5% CO2 in humidified atmosphere. Both compounds were dissolved in DMSO (1 mg/100 ul) and brought to final volume (250 ul) with Millipore deionized sterile water. Further dilutions were made with […] volume of 25 ul of freshly prepared solution was placed on the filter disk and allowed to dry.

[5] = tested on: MATB.WT; assay: Soft agar colony formation disk diffusion assay; type: cell-based, rat
In short: (§1)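 Anti-clonogenic activity is scored as the distance from the drug-loaded disk edge to the closest colony of more than 50 cells. Solid tumour and leukaemia lines are plated in separate dishes in two-layer soft agar and incubated 10-20 days at 37° C.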

[6] = tested on: MATB/ADR; assay: Soft agar colony formation disk diffusion assay; type: cell-based, rat
In short: as §1

[7] = tested on: SKVLB; assay: Microculture tetrazolium assay; type: cell-based; conditions: for IC50: SKVLB, read-out: IC50; for VLB/OV3: IC50 ratio SKVLB/SKOV3
[8] = tested on: T47D; assay: Microculture tetrazolium assay; type: cell-based; conditions: read-out: IC50

| Compound | CC50 [1] [µM] | GI50 [1] [µM] | GI50 [2] [µM] | GI50 [3] [µM] | zone of inhibition ([4]; 10 μg/DISK) [Zone Units] | zone of inhibition ([4]; 100 μg/DISK) [Zone Units] | zone of inhibition ([5]; 10 μg/DISK) [Zone Units] | zone of inhibition ([5]; 100 μg/DISK) [Zone Units] | zone of inhibition ([6]; 10 μg/DISK) [Zone Units] | zone of inhibition ([6]; 100 μg/DISK) [Zone Units] | IC50 [7] [µM] | IC50 ([8]; Homo sapiens) [µM] | VLB/OV3 [7] | other results |
| --- | --- | --- | --- | --- | --- | --- | --- | --- | --- | --- | --- | --- | --- | --- |
| COC(=O)C1CC2=C(C(=O)c3c(cc4ccccc4c3O)C2=O)C(O[C@H]2C[C@H](NC(=O)C(F)(F)F)[C@H](O)[C@H](C)O2)O1 (mixture of isomers) [BCH-242, (1'S,1R,3S) and (1'S, 1S,3R)-Methyl[11-hydroxy-1-2',3',6'-trideoxy-3-trifluroacetamido-L-lyxohexopyranose)-5,12-dioxo-3,4,5,12-tetrahydroanthraceno[2,3-c]pyran-3-yl]formate] | > 100 | 0.316 | 0.741 | 0.661 | – | – | – | – | – | – | – | – | – | Average LOG10 LC50, Mean Potency in solid tumors ([3]; solid tumors, 2880 min): -5.32 ± 0.20 log molar |
| CCOC(=O)[C@@H]1CC2=C(C(=O)c3c(c(O)c4ccccc4c3OC(C)=O)C2=O)[C@@H](O)O1 (mixture of isomers) [BCH-658, (1S,3S) and (1R,3R) Ethyl[11-acetoxy-1,6-dihydroxy-5,12-dioxo-3,4,5,12-tetrahydroanthraceno (2,3-c)pyran-3-yl]formate] | > 100 | > 100 | > 100 | 51.3 | 0 | 0 | 0 | 0 | 0 | 0 | > 100 | > 100 | – | CC50 [2]: > 100 µM; CC50 [3]: > 100 µM |
| CCOC(=O)[C@@H]1CC2=C(C(=O)c3cc4ccccc4c(OC(C)=O)c3C2=O)[C@@H](O)O1 (mixture of isomers) [BCH-660, (1S,3S) and (1R,3R)-Ethyl-[6-acetoxy-1-hydroxy-5,12-dioxo-3,4,5,12-tetrahydroanthraceno (2,3-c)pyran-3-yl]formate] | > 100 | 0.316 | 0.955 | 0.891 | 27.4 ± 4.3 | 103.7 ± 2.1 | 137.2 ± 21.5 | 137.2 ± 21.5 | 24.4 ± 8.6 | 161.5 ± 30.4 | 6.49 | 6.67 | 1.22 | CC50 [2]: 6.61 µM; CC50 [3]: 11.2 µM |
| COC(=O)[C@H]1CC2=C(C(=O)c3c(cc4ccccc4c3O)C2=O)[C@H](O[C@H]2C[C@H](NC(=O)C(F)(F)F)[C@H](O)[C@H](C)O2)O1 (mixture of isomers) [BCH-692, (1'S,1S,3R) and (1'S,1R,3S) Methyl[11-hydroxy-1-(2',3',6'-trideoxy-3'-trifluoroacetamido-4'-hydroxy-L-lyxohexopyranose)-5,12-dioxo-3,4,5,12-tetrahydro-anthraceno[2,3-c]pyran-3-yl]formate] | – | – | – | – | 105.0 ± 5.0 | – | 150.0 ± 18.5 | 400.5 ± 100.0 | 0 | 180.0 ± 50.5 | 1.77 | 71 | 0.62 | – |
| CCOC(=O)C1CC2=C(CO1)C(=O)c1cc3ccccc3c(O)c1C2=O (stereo not drawn) [BCH-653, Ethyl(6 and 11 hydroxy-5,12-dioxo-3,4,5,12-tetrahydro-anthraceno[2,3-c]pyran-3-yl)]formate] | > 100 | 15.8 | 38 | 39.8 | – | 42.7 ± 8.6 | – | 0 | – | 0 | – | – | – | CC50 [2]: > 100 µM; CC50 [3]: > 100 µM |
| CCOC(=O)C1CC2=C(CO1)C(=O)c1c(c(O)c3ccccc3c1OC(C)=O)C2=O (stereo not drawn) [BCH-654, Ethyl[11-acetoxy-6-hydroxy-5,12-dioxo-3,4,5,12-tetrahydroanthraceno(2,3-c)pyran-3-yl]formate] | – | – | – | – | 0 | 106.5 ± 21.9 | 0 | 152.5 ± 25.8 | 0 | 134.3 ± 17.3 | 57.1 | > 100 | 0.58 | – |
| COC(=O)[C@@H]1CC2=C(C(=O)c3c(cc4ccccc4c3O)C2=O)[C@@H](O[C@H]2C[C@H](NC(=O)C(F)(F)F)[C@H](O)[C@H](C)O2)O1 [BCH-691, (1'S,1R,3S)-Methyl-{11-hydroxy-1-(2',3',6'-trideoxy-3'-trifluoroacetamido-4'-hydroxy-L-lyxoheoxpyranose)-5,12-dioxo-3,4,5,12-tetrahydroanthraceno[2,3-c]pyran-3-yl}formate] | – | – | – | – | 137.0 ± 21.2 | 198.0 ± 21.2 | 120.0 ± 50.5 | 380.0 ± 120.0 | 0 | 200.0 ± 95.0 | 1.41 | 2.25 | 1.11 | – |
| CC(=O)Oc1c2c(c(O)c3ccccc13)C(=O)C1=C(C2=O)C(O)OC(C(C)=O)C1 (stereo not drawn) [BCH-704, Methyl(11-acetoxy-1,6-dihydroxy-5,12-dioxo-3,4,5,12-tetrahydroanthraceno[2,3-c]pyran-3-yl)ketone] | – | – | – | – | 39.6 ± 12.9 | 152.5 ± 43.1 | 198.5 ± 21.9 | 414.8 ± 25.8 | 320.2 ± 64.7 | 527.4 ± 72.9 | 13.8 | 11.8 | 0.84 | cross resistance with adriamycin, MATB/ADR vs MATB.WT [6]: greater cytotoxicity in the resistant breast tumor cell line |
| CCOC(=O)C1Cc2c(c(OC)c3c(c2OC)C(=O)c2ccccc2C3=O)CS1 (stereo not drawn) [BCH-717] | – | – | – | – | 0 | 0 | 0 | 0 | 0 | 0 | > 100 | > 100 | – | – |
| CC(=O)Oc1c2c(c(O)c3ccccc13)C(=O)C1=C(CC(C(C)=O)OC1)C2=O (stereo not drawn) [BCH-721] | – | – | – | – | 55.5 ± 8.0 | 121.5 ± 43.1 | 33.0 ± 4.2 | 143.0 ± 12.7 | 45.5 ± 21.9 | 137.0 ± 21.2 | 30.7 | – | 0.55 | IC50 [8]: 47.8 µM |
| Methyl(11-hydroxy-5,12-dioxo-3,4,5,12-tetrahydroanthraceno[2,3-c]pyran-3-yl)ketone and Methyl(5-hydroxy-5,12-dioxo-3,4,5,12-tetrahydroanthraceno[2,3-c]pyran-3-yl)ketone [BCH-687] | – | – | – | – | 61.0 ± 12.2 | 150.4 ± 25.3 | 42.7 ± 6.1 | 97.6 ± 20.0 | 69.1 ± 7.0 | 101.6 ± 35.2 | – | – | – | Average LOG10 GI50 ([1]; Leukemia): -4.91 ± 0.12 log molar; Average LOG10 GI50 ([2]; Ovarian): -4.94 ± 0.37 log molar; Average LOG10 GI50, Mean Potency in solid tumors ([3]; solid tumors): -4.87 ± 0.17 log molar |
